Results on one compound are retold here after patent US10011813B2, “Methane oxidation methods and compositions” (California Institute of Technology, priority 2015, dated 2018).

This experiment relates to ANME-SRB consortia. As to the kind of experiment: FISH-nanoSIMS 15N incorporation (anabolic activity) of ANME-SRB consortia. It counts as cell-based, ANME-2c archaea and Desulfobacteraceae. How it is done:
Incubations for FISH-nanoSIMS and RNA analysis. For AOM incubations with sulfate or AQDS that were used for nanoSIMS (FIG. 7 and FIG. 8A) and RNA analysis (FIG. 6), incubations experiments were set up following the AOM-rate measurements described above (initially containing 1.0 mM ammonium without ^15N label). Methane oxidation rates were tracked in these incubations via the ^13C label. After 11 days, ca. 3.5 mL of supernatant remained in the serum bottles to which 3.0 mL artificial seawater without ammonium containing either 25 mM AQDS, 28 mM sulfate, or no oxidant or electron acceptor was added. Next, 0.1 mL ^15NH4^+ (100 mM) was injected to yield about 2.0 mM ammonium with ca. 75% ^15N. Methane oxidation was monitored. After additional 8 days, the medium of the AQDS incubations was exchanged by 5.0 mL new medium containing 25 mM AQDS and 2.0 mM ^15NH4^+. Now the AQDS incubations contained ca. 95% ^15NH4^+ in the ammonium pool. The cultures were incubated for additional 10 days before harvest. Total incubation time with labeled ammonium: 18 days. Average labeling strength: ca. 75% for sulfate and no oxidant or electron acceptor control; ca. 86% for the AQDS incubations.
For the second independent set of experiments with iron citrate, humic acids and sulfate (FIG. 8B), the medium contained 1.0 mM ammonium with ca. 40% ^15N label throughout the incubation period. These experiments were carried out from identical incubations that were for the AOM rate measurements (highlighted in Table 4). In regards to Table 4, the percentage AOM rates are reported relative to sulfate-coupled AOM (1.50 μmol cm^−3 day^−1). Top: Summary of compounds described in FIG. 1B; Bottom: Oxidants or electron acceptors resulting in an AOM rate less than 0.10 μmol […] day^−1 (<7% rel. to sulfate as oxidant or electron acceptor).
Sampling for FISH-nanoSIMS and RNA. After an 18-day incubation in the presence of ^15NH4^+, each incubation was shaken to suspend the sediment and 1.0 mL sediment slurry was sampled using a disposable sterile needle and syringe (ca. 0.3 mL wet sediment). […]
Sample preparation for aggregate embedding, sectioning, FISH, and nanoSIMS. […] Sections of ca. 1 μm thickness were cut and stretched on a water droplet on a polylysine coated slide with teflon wells (Tekdon Inc) and analyzed by fluorescence in situ hybridization (FISH). […]
FISH conditions and probes. The FISH hybridization on thin sections of resin embedded microbial aggregates followed the recently optimized protocol described in S. E. McGlynn et al. The phylogenetic identity of microorganisms in the thin sections were determined using conventional FISH using oligonucleotide probes fluorescently labeled on both the 5′ and 3′ ends (dual labeled) as outlined herein. […]

As to `O=C1c2ccc(S(=O)(=O)O)cc2C(=O)c2ccc(S(=O)(=O)O)cc21` [AQDS, 9,10-anthraquinone-2,6-disulfonate], under “18 days with 15NH4+”, the “doubling time of ANME cells based on average 15N-incorporation” value is 3.3 months. For the same compound, the “anabolic activity within ANME-SRB consortia” value (sulfate-free incubations) was “occurred only in the ANME archaea”.
